{
  "source": "patent US20110105453A1",
  "about": "“Superoxide Dismutase Mimics For The Treatment Of Optic Nerve And Retinal Damage” (ALCON, INC., priority 2003, published 2011)",
  "origin": "cited, not measured here",
  "key": {"[1]": {"system": "light-induced retinal damage in albino rats"}, "[2]": {"system": "NADH-coenzyme Q1 reductase", "conditions": "uncouples mitochondrial respiration"}, "cytochrome c oxidase": {"system": "cytochrome c oxidase", "conditions": "uncouples mitochondrial respiration"}, "[3]": {"system": "rat ocular ischemia-reperfusion model", "conditions": "intravitreal injections (SOD protein)"}},
  "data": [
    {"smiles": "CC1(C)CC(O)CC(C)(C)N1[O]", "note": "[4-hydroxy-2,2,6,6-tetramethylpiperidine-1-oxyl]", "values": [
      {"measurement": "inhibition of light-induced retinal damage", "setting": "[1]", "value": "inhibited light-induced retinal damage"}
    ]},
    {"smiles": "NCCc1c[nH]c2c1C(=O)C(=O)C=C2", "note": "[T-4,5-D, tryptamine 4,5-dione]", "values": [
      {"measurement": "inhibition of NADH-coenzyme Q1 reductase", "setting": "[2]", "value": "irreversible inhibition"},
      {"measurement": "inhibition of cytochrome c oxidase", "setting": "cytochrome c oxidase", "value": "irreversible inhibition"},
      {"measurement": "inactivation of tryptophan hydroxylase", "setting": "tryptophan hydroxylase", "value": "irreversibly inactivates"}
    ]},
    {"smiles": "CNC(=S)NC", "note": "[dimethylthiourea]", "values": [
      {"measurement": "functional protection", "setting": "[3]", "value": 40, "unit": "%"}
    ]}
  ]
}
